Source: US20170066759A1, “AROMATIC 5-MEMBERED HETEROCYCLIC DERIVATIVE HAVING TRPV4-INHIBITING ACTIVITY” (Shionogi & Co., Ltd., priority 2012, published 2017)

How the values were obtained:
[1] = target: T1, human TRPV4 (hTRPV4/CHO cells) (Homo sapiens, UniProt Q9HBA0); assay: Test Example 2: TRPV4 inhibitory activity (IC50 value), 4α-PDD stimulation, Fluo3 calcium fluorescence (FLIPR); assay type: cell-based
T1 construct: expressed in transfected cells; host or cells: CHO-K1
Procedure: TRPV4 Inhibitory Activity (IC50 Value)
(§1) For each compound, TRPV4 inhibitory activity was measured using cells.
(§2) (Method) The procedures of evaluating TRPV4 inhibitory activity of a compound are as follows.
(§3) (1) TRPV4 inhibitory activity was measured using CHO-K1 cells stably expressing human TRPV4 (hTRPV4/CHO cells).
(2) In the day before the experimental day, frozen cell were thawed and washed with the culture medium (MEM-α, 10% FBS, 4 mmol/L L-Glutamine, 50 unit Penicillin, 50 μg/mL Streptomycin). Then cells were suspended in the culture medium.
(3) The 384-well plates which hTRPV4/CHO cells were seeded at densities of 4000 cells/well in the culture medium and cultured in a CO2 incubator in the presence of 5% CO2 at 37° C. for 24 hours was used as assay plates.
(4) The assay plate was washed with assay buffer (Hanks, 20 mmol/L HEPES, 2.5 mmol/L probenecid, pH7.4), and the buffer were remained at 20 μL/well.
(5) 10 μl of dye loading buffer (9 μmol/L Fluo 3-AM, 0.09% Pluronic F-127, 1% BSA/assay buffer) was added to each well, then the assay plate was incubated in a CO2 incubator in the presence of 5% CO2 at 37° C. for one hour. (final conc.; 3 μmol/L Fluo3-AM).
(6) The assay plate was washed with the assay buffer, and the buffers were remained at 20 μL/well. Then the assay plate was incubated for 10 min at room temperature.
(7) 20 μL of diluted compound solution was added to each well of assay plate, and mixed with built-in Pipette and Mixer of the Fluorescence analysis system FLIPR 384 (Molecular devices).
(8) After incubation for 4 min, 25 μL of 4α-PDD solution were applied to each well of assay plate and mixed with the FLIPR TETRA. (final conc.; 600 nmol/L 4α-PDD)
(9) The fluorescent intensity was measured with FLIPR TETRA system for 7 min from the point of time addition the compound solution, at Ex 488 nm, Em 510-570 nm wavelength.
TRPV4 inhibitory activity (IC50 value) of a compound was calculated according to the following procedure.
(10) In the presence of the compound, the difference between maximal and minimal of fluorescent intensity value for 3 min from just before addition of 4α-PDD solution was calculated, and it was referred as Max-Min value. Max-Min value of the Ruthenium Red at 20 μM was defined as 100% inhibitory activity, Max-Min value in the absence of the compound was defined as 0% inhibitory activity. TRPV4 inhibitory activity of the compound was calculated by the following formula.
(§4) (1−(Max−Min value of the compound−100% inhibitory activity)/(0% inhibitory activity−100% inhibitory activity))×100
(11) Inhibitory activity was calculated at 10 points with twice serial dilution, in the final concentration of the compound from 3.85 μg/mL to 7.5 ng/mL, the IC50 value (nmol/L) was calculated by logistic approximation method.

[2] = target: T1, human TRPV4 (hTRPV4/CHO cells); assay: Test Example 1: TRPV4 inhibitory activity (IC50 value), 4α-PDD stimulation, Fluo4 calcium fluorescence (FLIPR TETRA); assay type: cell-based; conditions: Test Example 1, 4α-PDD stimulation, read-out: Test 1 IC50
CYP1A2 = target: T2, CYP1A2 (Homo sapiens, UniProt P05177); assay: Test Example 6: CYP inhibition test, 7-ethoxyresorufin O-deethylation (CYP1A2); assay type: in vitro ADME; conditions: pooled human hepatic microsome, 0.5 μmol/L ethoxyresorufin
T2 construct: enzyme, pooled human hepatic microsome 0.2 mg protein/mL; from tissue; host or cells: pooled human liver microsomes
T2 sequence (P05177 1-516): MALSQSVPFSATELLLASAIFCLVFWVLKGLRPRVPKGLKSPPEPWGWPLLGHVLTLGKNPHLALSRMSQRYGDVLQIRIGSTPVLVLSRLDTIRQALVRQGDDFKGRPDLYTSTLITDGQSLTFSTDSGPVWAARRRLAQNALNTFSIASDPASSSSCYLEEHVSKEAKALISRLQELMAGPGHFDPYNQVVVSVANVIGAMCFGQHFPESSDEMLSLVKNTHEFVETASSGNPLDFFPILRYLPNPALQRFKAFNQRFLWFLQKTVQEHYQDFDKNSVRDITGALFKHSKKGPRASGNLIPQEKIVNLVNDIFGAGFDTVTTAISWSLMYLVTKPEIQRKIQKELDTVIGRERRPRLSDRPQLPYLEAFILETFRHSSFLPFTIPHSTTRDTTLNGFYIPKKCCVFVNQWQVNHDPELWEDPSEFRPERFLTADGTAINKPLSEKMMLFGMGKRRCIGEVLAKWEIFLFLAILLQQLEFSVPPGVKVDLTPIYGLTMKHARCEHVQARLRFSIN
Procedure: (§5) Test Example 6 CYP Inhibition Test […] The reaction conditions were as follows: substrate, 0.5 μmol/L ethoxyresorufin (CYP1A2), 100 μmol/L tolbutamide (CYP2C9), 50 μmol/L S-mephenytoin (CYP2C19), 5 μmol/L dextromethorphan (CYP2D6), 1 μmol/L terfenedine (CYP3A4); reaction time, 15 minutes; reaction temperature, 37° C.; enzyme, pooled human hepatic microsome 0.2 mg protein/mL; concentration of the compound of the present invention, 1, 5, 10, 20 μmol/L (four points). Each five kinds of substrates, human hepatic microsome, and the compound of the present invention in 50 mmol/L Hepes buffer as a reaction solution were added to a 96-well plate at the composition as described above. NADPH, as a cofactor was added to initiate metabolism reactions as markers and, after the incubation at 37° C. for 15 minutes, a methanol/acetonitrile=1/1 (v/v) solution was added to stop the reaction. After the centrifugation at 3000 rpm for 15 minutes, resorufin (CYP1A2 metabolite) in the supernatant was quantified by a fluorescent multilabel counter and toltributamide hydroxide (CYP2[…] metabolite), mephenytoin 4' hydroxide (CYP2C19 metabolite), […], and terfenadine alcohol (CYP3A4 metabolite) were quantified by LC/MS/MS. Addition of only DMSO being a solvent dissolving the compound of the present invention to a reaction system was adopted as a control (100%). Remaining activity (%) was calculated at each concentration of the compound of the present invention added as the solution and IC50 was calculated by reverse presumption by a logistic model using a concentration and an inhibition rate.

CYP2C9 = target: T3, CYP2C9 (Homo sapiens, UniProt P11712); assay: Test Example 6: CYP inhibition test, tolbutamide methyl-hydroxylation (CYP2C9); assay type: in vitro ADME; conditions: pooled human hepatic microsome, 100 μmol/L tolbutamide
T3 construct: enzyme, pooled human hepatic microsome 0.2 mg protein/mL; from tissue; host or cells: pooled human liver microsomes
Procedure: as §5

CYP2C19 = target: T4, CYP2C19 (Homo sapiens, UniProt P33261); assay: Test Example 6: CYP inhibition test, mephenytoin 4′-hydroxylation (CYP2C19); assay type: in vitro ADME; conditions: pooled human hepatic microsome, 50 μmol/L S-mephenytoin
T4 construct: enzyme, pooled human hepatic microsome 0.2 mg protein/mL; from tissue; host or cells: pooled human liver microsomes
Procedure: as §5

CYP2D6 = target: T5, CYP2D6 (Homo sapiens, UniProt P10635); assay: Test Example 6: CYP inhibition test, dextromethorphan O-demethylation (CYP2D6); assay type: in vitro ADME; conditions: pooled human hepatic microsome, 5 μmol/L dextromethorphan
T5 construct: enzyme, pooled human hepatic microsome 0.2 mg protein/mL; from tissue; host or cells: pooled human liver microsomes
Procedure: as §5

CYP3A4 = target: T6, CYP3A4 (Homo sapiens, UniProt P08684); assay: Test Example 6: CYP inhibition test, terfenedine hydroxylation (CYP3A4); assay type: in vitro ADME; conditions: pooled human hepatic microsome, 1 μmol/L terfenedine
T6 construct: enzyme, pooled human hepatic microsome 0.2 mg protein/mL; from tissue; host or cells: pooled human liver microsomes
Procedure: as §5

[3] = target: T1, human TRPV4 (hTRPV4/CHO cells); assay: Test Example 4: TRPV4 inhibitory activity (Ki value), 4α-PDD stimulation, Fluo-3 calcium fluorescence (FDSS 3000); assay type: cell-based; conditions: Test Example 4, 4α-PDD stimulation, read-out: Test 4 Ki
Procedure: TRPV4 Inhibitory Activity (Ki Value)
as §1, §2, §3
(2) Cells were subcultured using the MEM-α medium (SIGMA M4526: 500 ml), FBS (HyCloneSH30070.03: 10%), L-Glutamine 200 mmol/L (GIBCO: 4 mmol/L), P/S (nacalai tesque: 1%), G418 (nacalai tesque: 1 mg/mL).
(3) The 96-well plates which hTRPV4/CHO cells were seeded at densities of 2×10^4 cells/well in the culture medium in the day before the experimental day, and cultured in a CO2 incubator in the presence of 5% CO2 at 37° C. for 24 hours was used as assay plates.
(4) Cells were washed with assay buffer (Hank's Balanced Salt Solution 9.8 g, 1 mol/L HEPES (pH7.5), 250 mmol/L probenecid).
(5) Fluo-3, fluorescent dye for Ca influx assay was added to each well, then the assay plate was incubated in a CO2 incubator in the presence of 5% CO2 at 37° C. for one hour (final conc.; 5 μmol/L Fluo-3).
(6) The assay plate was washed with the assay buffer, and the buffer was remained at 30 μL/well. Then the assay plate was incubated for 10 min at 37° C.
(7) 20 μL of diluted compound solution was added to each well of assay plate, and mixed with built-in Pipette and Mixer of the fluorescence analysis system FDSS 3000 (Hamamatsu Photonics).
(8) 50 μL of 4α-PDD solution (concluding 0.1% Pluronic F-127) was applied to each well of assay plate and mixed.
(9) The fluorescent intensity was measured by FDSS 3000 for 8 min from the point of time addition the compound solution, at Ex 480 nm, Em 540 nm wavelength.
TRPV4 inhibitory activity (Ki value) of a compound was calculated according to the following procedure.
(10) In the presence of the compound, the difference between maximal and minimal of fluorescent intensity value for 8 min from just before addition of 4α-PDD solution was calculated, and it was referred as Max-Min value. Max-Min value of the Ruthenium Red at 10 μM was defined as 100% inhibitory activity, Max-Min value in the absence of the compound was defined as 0% inhibitory activity. TRPV4 inhibitory activity of the compound was calculated by the following formula.
as §4
(11) By the following formula, inhibitory activity was calculated at 10 points with three fold serial dilution, in the final concentration of the compound from 10 μmol/L to 0.5 nmol/L. The IC50 value was calculated by dose-response curve.
100−[(fluorescent intensity in the presence of the compound−fluorescent intensity of back ground)/(total fluorescent intensity−fluorescent intensity of back ground)]×100
(12) In the presence of the compound, activity of 4α-PDD was measured at 9 points with three fold serial dilution from 20 μmol/L. Activity of 4α-PDD was calculated by the following formula.
(Max−Min value of the each 4α-PDD concentration−0% activity)/(100% activity−0% activity))×100
(13) Effective activity was calculated in 4α-PDD the above. The EC50 value was calculated by dose-response curve.
(14) The Ki value of a compound was calculated by the following formula.
Ki=IC50 value/1+([A]/EC50)
[A]: Concentration of agonist (nmol/L)

[4] = Test Example 2, 4α-PDD stimulation, read-out: Test 2 IC50

T1 sequence (Q9HBA0 whole entry): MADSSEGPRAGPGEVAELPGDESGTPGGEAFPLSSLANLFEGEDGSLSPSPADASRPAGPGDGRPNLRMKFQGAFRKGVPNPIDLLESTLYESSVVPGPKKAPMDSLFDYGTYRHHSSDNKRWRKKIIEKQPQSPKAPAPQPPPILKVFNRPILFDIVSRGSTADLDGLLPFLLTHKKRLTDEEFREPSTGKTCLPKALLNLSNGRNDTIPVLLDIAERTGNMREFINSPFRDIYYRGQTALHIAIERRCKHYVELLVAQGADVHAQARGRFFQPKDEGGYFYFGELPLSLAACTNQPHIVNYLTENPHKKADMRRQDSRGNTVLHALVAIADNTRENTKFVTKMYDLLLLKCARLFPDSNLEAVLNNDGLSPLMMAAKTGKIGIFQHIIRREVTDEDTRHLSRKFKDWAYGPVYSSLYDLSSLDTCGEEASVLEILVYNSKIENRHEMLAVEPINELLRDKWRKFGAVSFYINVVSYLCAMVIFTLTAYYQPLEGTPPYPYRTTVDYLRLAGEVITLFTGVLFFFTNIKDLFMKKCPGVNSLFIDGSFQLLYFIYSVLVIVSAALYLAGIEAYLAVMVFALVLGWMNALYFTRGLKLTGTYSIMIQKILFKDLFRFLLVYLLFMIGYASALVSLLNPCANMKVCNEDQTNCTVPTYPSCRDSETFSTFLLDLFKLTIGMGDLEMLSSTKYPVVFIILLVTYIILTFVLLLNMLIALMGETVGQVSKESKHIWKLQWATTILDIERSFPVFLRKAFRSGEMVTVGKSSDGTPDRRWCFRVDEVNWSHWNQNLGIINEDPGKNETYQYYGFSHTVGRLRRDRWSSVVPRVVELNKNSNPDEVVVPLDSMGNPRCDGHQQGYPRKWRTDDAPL
T4 sequence (P33261 whole entry): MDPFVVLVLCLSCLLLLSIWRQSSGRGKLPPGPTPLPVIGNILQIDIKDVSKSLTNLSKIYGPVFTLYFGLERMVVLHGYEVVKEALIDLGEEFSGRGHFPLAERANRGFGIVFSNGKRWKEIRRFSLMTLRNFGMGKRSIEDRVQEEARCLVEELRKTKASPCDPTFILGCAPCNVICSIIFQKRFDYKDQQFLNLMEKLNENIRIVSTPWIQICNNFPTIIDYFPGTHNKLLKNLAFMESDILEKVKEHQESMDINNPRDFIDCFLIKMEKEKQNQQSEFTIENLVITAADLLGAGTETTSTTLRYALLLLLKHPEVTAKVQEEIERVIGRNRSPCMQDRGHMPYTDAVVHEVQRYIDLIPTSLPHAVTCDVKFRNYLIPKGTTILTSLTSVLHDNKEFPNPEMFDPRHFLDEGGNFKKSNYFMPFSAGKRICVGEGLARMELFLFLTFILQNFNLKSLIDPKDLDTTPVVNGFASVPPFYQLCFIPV
T3 sequence (P11712 whole entry): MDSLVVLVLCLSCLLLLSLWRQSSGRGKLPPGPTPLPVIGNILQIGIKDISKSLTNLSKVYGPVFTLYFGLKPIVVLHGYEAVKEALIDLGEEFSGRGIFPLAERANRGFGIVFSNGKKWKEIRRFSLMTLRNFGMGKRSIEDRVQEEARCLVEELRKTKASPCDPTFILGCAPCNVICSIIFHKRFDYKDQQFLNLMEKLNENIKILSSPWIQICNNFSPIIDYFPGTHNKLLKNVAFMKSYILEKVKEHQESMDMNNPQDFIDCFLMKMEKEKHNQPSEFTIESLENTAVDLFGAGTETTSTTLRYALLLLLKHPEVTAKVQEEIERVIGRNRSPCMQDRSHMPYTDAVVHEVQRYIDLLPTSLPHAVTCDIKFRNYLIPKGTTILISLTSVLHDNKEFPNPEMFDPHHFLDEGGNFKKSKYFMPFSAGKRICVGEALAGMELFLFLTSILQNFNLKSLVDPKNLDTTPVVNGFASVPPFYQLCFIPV
T5 sequence (P10635 whole entry): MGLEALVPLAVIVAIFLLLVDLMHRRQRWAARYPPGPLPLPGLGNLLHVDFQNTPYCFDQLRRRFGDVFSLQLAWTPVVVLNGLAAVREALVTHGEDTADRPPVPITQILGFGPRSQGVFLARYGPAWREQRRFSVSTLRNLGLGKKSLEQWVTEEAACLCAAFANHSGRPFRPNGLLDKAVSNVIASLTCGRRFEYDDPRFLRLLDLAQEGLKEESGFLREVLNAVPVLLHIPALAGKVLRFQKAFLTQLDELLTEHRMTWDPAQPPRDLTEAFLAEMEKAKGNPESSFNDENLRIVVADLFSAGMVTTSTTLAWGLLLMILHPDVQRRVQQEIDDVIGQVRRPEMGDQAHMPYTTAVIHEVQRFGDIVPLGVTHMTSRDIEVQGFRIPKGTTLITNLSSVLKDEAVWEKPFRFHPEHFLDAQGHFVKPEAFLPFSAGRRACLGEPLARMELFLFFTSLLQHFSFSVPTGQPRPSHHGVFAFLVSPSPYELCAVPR
T6 sequence (P08684 whole entry): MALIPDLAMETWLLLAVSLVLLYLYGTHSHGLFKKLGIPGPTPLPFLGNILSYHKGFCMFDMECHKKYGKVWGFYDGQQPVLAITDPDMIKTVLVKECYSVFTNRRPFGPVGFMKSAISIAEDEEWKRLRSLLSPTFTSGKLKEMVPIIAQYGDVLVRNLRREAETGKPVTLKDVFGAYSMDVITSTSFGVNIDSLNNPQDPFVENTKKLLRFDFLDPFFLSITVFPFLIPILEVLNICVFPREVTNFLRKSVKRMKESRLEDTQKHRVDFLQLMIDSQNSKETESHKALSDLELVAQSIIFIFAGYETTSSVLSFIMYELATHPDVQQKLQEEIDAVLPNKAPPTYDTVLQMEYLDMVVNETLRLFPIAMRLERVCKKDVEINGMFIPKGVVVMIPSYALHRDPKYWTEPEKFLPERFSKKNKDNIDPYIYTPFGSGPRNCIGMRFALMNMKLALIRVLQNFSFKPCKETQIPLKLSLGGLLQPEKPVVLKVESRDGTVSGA

Row | IC50 [1, 4] [µM] | Structure (SMILES) | other results
1 | 0.1 to 1 | Cc1ccc(-c2csc(NC(=O)COc3ccc(Br)cc3)n2)s1 [II-16] | 
2 | 1 to 8 | CC(C)(C)c1ccc(C(=O)Nc2nc(-c3ccc(Cl)s3)cs2)cc1 [II-12] | 
3 | 1 to 8 | Cc1nc(N)sc1-c1csc(Nc2ccc(Br)cc2Br)n1 [II-21] | 
4 | 1 to 8 | O=C(Nc1nc(-c2ccc(Br)s2)cs1)c1ccc(Br)s1 [II-14] | 
5 | 1 to 8 | O=C(Nc1nc(-c2ccc(Br)s2)cs1)c1cccc(F)c1 [II-11] | 
6 | 1 to 8 | C/C(=N\Nc1nc(-c2cccs2)cs1)c1ccc(Cl)c(Cl)c1 [II-18] | 
7 | 1 to 8 | O=C(CSc1ccccc1)Nc1nc(-c2ccc(Br)s2)cs1 [II-17] | 
8 | 1 to 8 | N=C(N)Nc1ncc(-c2csc(NC(=O)c3ccccc3)n2)s1 [Compound I-187] | 
9 | 1 to 8 | O=C(Nc1nc(-c2ccc(Cl)s2)cs1)c1cccc(C(F)(F)F)c1 [II-10] | 
10 | 1 to 8 | CC(=O)Nc1nc(-c2ccc(Br)s2)cs1 [II-13] | 

The remaining lines, values behind:

Row | Structure (SMILES) | IC50 [1, 4] [µM] | other results
11 | Cc1cccc(Nc2nc(-c3sc(N)nc3C)cs2)c1 [II-20] | 0.1 to 1 | 
12 | c1ccc(Nc2nc(-c3cccs3)cs2)nc1 [II-9] | 1 to 8 | 
13 | Cc1nc(C)c(-c2csc(Nc3ccccn3)n2)s1 [II-22] | < 0.1 | IC50 ([1]; 600 nmol/L 4α-PDD, Fluo3-AM, read-out: TRPV4 inhibitory activity (IC50 value)): 0.073 µM
14 | Cc1ccnc(Nc2nc(-c3sc(N)nc3C)cs2)c1 [II-23] | 1 to 8 | 
15 | Cc1nc(C)c(-c2csc(NC(=O)Cn3cc(Cl)cn3)n2)s1 [Compound I-116] |  | IC50 [2]: 1 to 8 µM; IC50 (CYP1A2): > 20 µM; IC50 (CYP2C9): > 20 µM; IC50 (CYP2C19): > 20 µM; IC50 (CYP2D6): > 20 µM; IC50 (CYP3A4): > 20 µM
16 | COc1ccc(/C(C)=N/Nc2nc(-c3sc(C)nc3C)cs2)cc1 [II-19] | 0.1 to 1 | 
17 | O=C(Nc1nc(-c2cccs2)cs1)C1c2ccccc2Oc2ccccc21 [II-15] | 1 to 8 | 
18 | C=CCNc1nc(-c2sc(C)nc2C)cs1 [II-24] | 1 to 8 | 
19 | Cc1nc(C)c(-c2csc(NC(=O)[C@@H]3CCC(=O)N3)n2)s1 [Compound I-42] |  | Ki [3]: 1 to 3 µM; IC50 (CYP1A2): > 20 µM; IC50 (CYP2C9): > 20 µM; IC50 (CYP2C19): > 20 µM; IC50 (CYP2D6): > 20 µM; IC50 (CYP3A4): > 20 µM
